In US20250352520A1, “USE OF DEXPRAMIPEXOLE FOR THE TREATMENT OF EOSINOPHILIC COPD” (Areteia Therapeutics, Inc., priority 2024, published 2025):

Settings: Week 16; <50% AEC reduction at Week 16

CCCN[C@@H]1CCc2nc(N)sc2C1 [Dexpramipexole, (6R)-2-amino-4,5,6,7-tetrahydro-6-(propylamino)benzothiazole]
Pre-BD FEF25-75 % change from baseline, Max: −3%
Pre-BD FEF25-75 % change from baseline, Mean ± SD: −14.5 ± 19.68%
Pre-BD FEF25-75 % change from baseline, Median: −5.5%
Pre-BD FEF25-75 % change from baseline, Min: −44%
Pre-BD FEF25-75 % change from baseline, Q1: −25%
Pre-BD FEF25-75 % change from baseline, Q3: −4%
Pre-BD FEF25-75 Observed, Max: 780 mL/s
Pre-BD FEF25-75 Observed, Mean ± SD: 505.0 ± 266.15 mL/s
Pre-BD FEF25-75 Observed, Median: 505.0 mL/s
Pre-BD FEF25-75 Observed, Min: 230 mL/s
Pre-BD FEF25-75 Observed, Q1: 280 mL/s
Pre-BD FEF25-75 Observed, Q3: 730 mL/s
Pre-BD FEF25-75 change from baseline, Max: -10 mL/s
Pre-BD FEF25-75 change from baseline, Mean ± SD: -170.0 ± 293.94 mL/s
Pre-BD FEF25-75 change from baseline, Median: -30.0 mL/s
Pre-BD FEF25-75 change from baseline, Min: -610 mL/s
Pre-BD FEF25-75 change from baseline, Q1: -330 mL/s
Pre-BD FEF25-75 change from baseline, Q3: -10 mL/s
Pre-BD FEV1 % change from baseline, Max: 3%
Pre-BD FEV1 % change from baseline, Mean ± SD: −11.4 ± 15.14%
Pre-BD FEV1 % change from baseline, Median: −8.5%
Pre-BD FEV1 % change from baseline, Min: −32%
Pre-BD FEV1 % change from baseline, Q1: −22%
Pre-BD FEV1 % change from baseline, Q3: 0%
Pre-BD FEV1 Observed, Max: 1660 mL
Pre-BD FEV1 Observed, Mean ± SD: 1280.0 ± 399.67 mL
Pre-BD FEV1 Observed, Median: 1370.0 mL
Pre-BD FEV1 Observed, Min: 720 mL
Pre-BD FEV1 Observed, Q1: 1020 mL
Pre-BD FEV1 Observed, Q3: 1540 mL
Pre-BD FEV1 change from baseline, Max: 50 mL
Pre-BD FEV1 change from baseline, Mean ± SD: -192.5 ± 318.58 mL
Pre-BD FEV1 change from baseline, Median: -80.0 mL
Pre-BD FEV1 change from baseline, Min: -660 mL
Pre-BD FEV1 change from baseline, Q1: -385 mL
Pre-BD FEV1 change from baseline, Q3: 0 mL
Pre-BD FVC % change from baseline, Max: 3%
Pre-BD FVC % change from baseline, Mean ± SD: −3.2 ± 7.22%
Pre-BD FVC % change from baseline, Median: −2.0%
Pre-BD FVC % change from baseline, Min: −12%
Pre-BD FVC % change from baseline, Q1: −9%
Pre-BD FVC % change from baseline, Q3: 3%
Pre-BD FVC Observed, Max: 3380 mL
Pre-BD FVC Observed, Mean ± SD: 2900.0 ± 503.26 mL
Pre-BD FVC Observed, Median: 2985.0 mL
Pre-BD FVC Observed, Min: 2250 mL
Pre-BD FVC Observed, Q1: 2510 mL
Pre-BD FVC Observed, Q3: 3290 mL
Pre-BD FVC change from baseline, Max: 80 mL
Pre-BD FVC change from baseline, Mean ± SD: -95.0 ± 203.55 mL
Pre-BD FVC change from baseline, Median: -80.0 mL
Pre-BD FVC change from baseline, Min: -300 mL
Pre-BD FVC change from baseline, Q1: -270 mL
Pre-BD FVC change from baseline, Q3: 80 mL
Pre-BD Peak Flow % change from baseline, Max: 930%
Pre-BD Peak Flow % change from baseline, Mean ± SD: 236.0 ± 462.72%
Pre-BD Peak Flow % change from baseline, Median: 8.1%
Pre-BD Peak Flow % change from baseline, Min: −2%
Pre-BD Peak Flow % change from baseline, Q1: 1%
Pre-BD Peak Flow % change from baseline, Q3: 471%
Pre-BD Peak Flow Observed, Max: 412 L/min
Pre-BD Peak Flow Observed, Mean ± SD: 258.0 ± 118.14 L/min
Pre-BD Peak Flow Observed, Median: 248.0 L/min
Pre-BD Peak Flow Observed, Min: 124 L/min
Pre-BD Peak Flow Observed, Q1: 186 L/min
Pre-BD Peak Flow Observed, Q3: 331 L/min
Pre-BD Peak Flow change from baseline, Max: 372 L/min
Pre-BD Peak Flow change from baseline, Mean ± SD: 101.5 ± 180.70 L/min
Pre-BD Peak Flow change from baseline, Median: 18.5 L/min
Pre-BD Peak Flow change from baseline, Min: -3 L/min
Pre-BD Peak Flow change from baseline, Q1: 5 L/min
Pre-BD Peak Flow change from baseline, Q3: 199 L/min
